Source: article PMC5913239, “Targeting GLP-1 receptor trafficking to improve agonist efficacy” (Nature Communications, 2018)

Experiments:
INS-1 832/3 cells = assay: Insulin secretion in INS-1 832/3 beta cells; format: cell-based, rat; details: INS-1 832/3, 16 h
SNAP-GLP-1R [1] = target: T1, SNAP-GLP-1R (Homo sapiens, UniProt P43220); assay: GLP-1R recycling, plate reader surface labeling, CHO-SNAP-GLP-1R cells; format: cell-based
SNAP-GLP-1R [2] = target: T1, SNAP-GLP-1R; assay: Competitive association kinetics (TR-FRET, competition with exendin-4-FITC), CHO-SNAP-GLP-1R cells; format: binding
GLP-1R [3] = target: T2, GLP-1R (Homo sapiens, UniProt P43220); assay: Agonist-induced GLP-1R internalization (cell surface receptor loss), post-stimulation Lumi4-Tb surface labeling, CHO-SNAP-GLP-1R cells; format: cell-based; details: ± 3 μM BETP, 30 min, 100 nM exendin-4, n=4
GLP-1R [4] = target: T2, GLP-1R; assay: cAMP accumulation (HTRF) in PathHunter CHO-GLP-1R cells; format: cell-based; design: host or cells: PathHunter CHO-K1 reporter cells (purchased cell lines); details: ± 3 μM BETP, n=3
GLP-1R [5] = target: T2, GLP-1R; assay: β-arrestin-2 recruitment, PathHunter CHO-GLP-1R cells; format: cell-based; design: host or cells: PathHunter CHO-K1 reporter cells (purchased cell lines); details: ± 3 μM BETP, n=3

T2 sequence (P43220 24-463): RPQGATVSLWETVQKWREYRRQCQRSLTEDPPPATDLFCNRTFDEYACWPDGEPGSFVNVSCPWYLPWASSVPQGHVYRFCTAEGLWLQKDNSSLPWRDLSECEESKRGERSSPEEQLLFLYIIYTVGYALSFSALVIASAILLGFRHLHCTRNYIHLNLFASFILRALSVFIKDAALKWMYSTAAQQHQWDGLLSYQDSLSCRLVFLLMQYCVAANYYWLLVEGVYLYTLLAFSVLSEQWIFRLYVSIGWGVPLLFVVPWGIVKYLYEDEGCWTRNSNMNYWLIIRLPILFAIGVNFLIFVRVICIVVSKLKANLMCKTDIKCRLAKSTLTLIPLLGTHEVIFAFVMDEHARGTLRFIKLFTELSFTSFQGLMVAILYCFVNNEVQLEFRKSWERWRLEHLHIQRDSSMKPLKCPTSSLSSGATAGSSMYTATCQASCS
T1 sequence (P43220 24-463): as above

Row | effect on GLP-1R recycling after exendin-4 exposure (SNAP-GLP-1R [1]; ± 3 μM BETP, 60 min recycling, 100 nM exendin-4, n=4) | effect on exendin-4 association rate (SNAP-GLP-1R [2]; ± 10 μM BETP, n=4) | effect on exendin-4 residence time (SNAP-GLP-1R [2]; ± 10 μM BETP, n=4) | effect on exendin-4-induced internalization (GLP-1R [3]) | effect on exendin-4 cAMP response (GLP-1R [4]) | effect on exendin-4 β-arrestin-2 recruitment response (GLP-1R [5]) | GLP-1R recycling (comparison in words) (SNAP-GLP-1R [1]; 100 nM, 60 min, with 10 μM exendin(9-39), n=5) | agonist residence time (comparison in words) (SNAP-GLP-1R [2]; CHO-SNAP-GLP-1R, normalized to exendin-4-FITC response per assay, n=5) | Compound | effect on exendin-4-induced prolonged insulin secretion (INS-1 832/3 cells; ± 3 µM BETP, n=5) | prolonged insulin secretion, comparison with licensed GLP-1R agonists (INS-1 832/3 cells; 100 nM, tested in parallel, n=6)
1 | slowed | without changes | increased | minimal effect | did not affect | did not affect |  |  | CC[S+]([O-])c1nc(-c2cccc(OCc3ccccc3)c2)cc(C(F)(F)F)n1 (stereo not shown) [BETP, 4-(3-(benzyloxy)phenyl)-2-(ethylsulfinyl)-6-(trifluoro-methyl)pyrimidine] | reduced | 
2 |  |  |  |  |  |  | modestly increased recycling | shorter than other compounds | Dulaglutide |  | closest to ex-phe1
